Laboratory results reported in patent publication US5178662A, “Benzaldehyde acetal compounds, preparation process thereof, and herbicidal compositions containing the same as active ingredients” (Mitsui Toatsu Chemicals, Inc., priority 1990, dated 1993).

Assays:
Johnsongrass [1] = experiment: Upland foliar application test, johnsongrass; format: in vivo; conditions: Sorghum halepense, 960 h; foliar application at stage of 2-3 leaves, 50 g ai/a, emulsion, 40th day after spray; read-out: Herbicidal effects Johnsongrass
Procedure: (§1) Resin-made 1/1000-are pots were filled with the soil of an upland field. After they were fertilized, cotton and soybean were seeded and 3 cm soil covering was applied. Five days later, amaranth, common lambsquarters, barnyardgrass, green foxtail, large crabgrass and johnsongrass were seeded and 1 cm soil covering was applied. They were allowed to grow in a green house. When each plant grew to the stage of 2-3 leaves, an emulsion formulated from a predetermined amount of each test compound in a similar manner to the procedures described in Formulation Example 11 was diluted with water and then sprayed at a predetermined application rate by means of a pressure-operated sprayer. The application rate was controlled at 5 l per are. Influence to the crops and weeds were observed on the 40th day after the spray of the herbicides. The results are shown in Table 4 in which the degree of damages of each test plant and the degree of injury to each crop are shown in a similar manner to Test 2.

[2] = test system: Cotton (Gossypium indicum); experiment: Upland soil application test, crop injury cotton; format: in vivo; conditions: soil application one day after seeding, 50 g ai/a, wettable powder, fresh weight on 50th day after spray
Procedure: (§2) Resin-made 1/1000-are pots were filled with the soil of an upland field. After they were fertilized, cotton and soybean were seeded and 3 cm soil covering was applied. In addition, amaranth, common lambs-quarters, barnyardgrass, green foxtail, large crabgrass and johnsongrass were seeded and 1 cm soil covering was applied. One day later, a wettable powder prepared from a predetermined amount of each test compound in a similar manner to the procedures described in Formulation Example 1 was diluted with water and then sprayed evenly at an application rate equal to 10 l per are onto the surface of the soil by means of a pressure-operated sprayer. The weeds and crops were allowed to grow in a green house and influence to them were observed on the 50th day after the spray. The degree of damages of each test plant and the degree of injury to each crop were determined by measuring fresh weight in each group and indicated by % calculated according to the following formula. [formula]

[3] = test system: Crabgrass (Digitaria adscendens); experiment: Upland foliar application test, large crabgrass; format: in vivo; conditions: 960 h, foliar application at stage of 2-3 leaves, 50 g ai/a, emulsion, 40th day after spray, read-out: Herbicidal effects Crabgrass (Digitaria adscendens)
Procedure: as §2, §1

Soybean (Glycine max) [4] = experiment: Upland foliar application test, crop injury soybean; format: in vivo; conditions: foliar application at stage of 2-3 leaves, 50 g ai/a, emulsion, 40th day after spray
Procedure: as §1

[5] = test system: Foxtail (Setaria viridis); experiment: Upland foliar application test, green foxtail; format: in vivo; conditions: 960 h, foliar application at stage of 2-3 leaves, 50 g ai/a, emulsion, 40th day after spray, read-out: Herbicidal effects Foxtail (Setaria viridis)
Procedure: as §2, §1

[6] = test system: Foxtail (Setaria viridis); experiment: Upland soil application test, green foxtail; format: in vivo; conditions: 1200 h, soil application one day after seeding, 50 g ai/a, wettable powder, fresh weight on 50th day after spray, read-out: Herbicidal effects Foxtail (Setaria viridis)
Procedure: as §2

[7] = test system: Barnyardgrass (Echinochloa crusgalli); experiment: Upland soil application test, barnyardgrass; format: in vivo; conditions: Echinochloa crus-galli, 1200 h; soil application one day after seeding, 50 g ai/a, wettable powder, fresh weight on 50th day after spray; read-out: Herbicidal effects Barnyardgrass (Echinochloa crusgalli)
Procedure: as §2

[8] = test system: Cotton (Gossypium indicum); experiment: Upland foliar application test, crop injury cotton; format: in vivo; conditions: foliar application at stage of 2-3 leaves, 50 g ai/a, emulsion, 40th day after spray
Procedure: as §2, §1

[9] = test system: ALS (acetolactate syntase) from pea seedlings; experiment: ALS (acetolactate syntase) inhibition test, pea enzyme; format: biochemical; conditions: 10,000 ppm (0.5 μg/0.5 ml) of compound; 1 hour at 30° C.; absorbance at 525 nm
Procedure: (§3) To determine the selectivity in enzyme level between crops and weeds, an ALS inhibition test was conducted using pea as a typical broadleaf crop and barnyardgrass as a representative gramineous weeds.
(§4) After seeds of pea and barnyardgrass were allowed to germinate at 25° C. for 8-14 days in a dark place, partially-purified suspensions (Suspensions A) of acetolactate syntase were separately obtained from the seedlings in accordance with the procedures described in the literature, Plant Physiology, 75, 827-831. In a test tube, 0.5 mg of one of test compounds was weighed, followed by the addition of 0.15 ml of a 20 mM K2 HPO4 solution and 0.25 ml of a reaction substrate medium which consisted of 40 mM of K2 HPO4, 40 mM of sodium pyruvate, 1 mM of TPP, 1 mM of MgCl2 and 20 μM of FAD so that 0.4 ml of a reaction solution (Solution B) was prepared. Added to 0.4 ml of Solution B was 0.1 ml of Suspension A. After the resultant mixture was shaken for 1 hour in a thermostat water bath controlled at 30° C., 50 μl of 6N sulfuric acid were added to terminate the reaction.
(§5) Next, the test tube with the reaction-terminated liquid mixture contained therein was transferred into a thermostat water bath controlled at 60° C. and was heated for 15 minutes. Thereafter, 0.5 ml of a 0.5% creatine solution and 0.5 ml of a 5% alkaline α-naphthol solution were added, and the resultant mixture was maintained at 60° C. for 15 minutes. As a result, the test solution developed a pink-to-red color. After the above operation, the absorbance of the test solution at 525 nm was measured by a spectrophotometer (Absorbance 1 of Test Compound).
(§6) Further, the absorbance (Absorbance 2 of Blank) of a solution obtained by subjecting a portion of Solution B to the above procedures without addition of any test compound and the absorbance (Absorbance 3 of sulfuric acid) of another solution obtained by subjecting another portion of Solution B to the above procedures which using 50 μl of 6N sulfuric acid as a test compound were also measured.

[10] = test system: Amaranth (Amaranthus viridis); experiment: Upland foliar application test, amaranth; format: in vivo; conditions: 960 h, foliar application at stage of 2-3 leaves, 50 g ai/a, emulsion, 40th day after spray, read-out: Herbicidal effects Amaranth (Amaranthus viridis)
Procedure: as §2, §1

Johnsongrass [11] = experiment: Upland soil application test, johnsongrass; format: in vivo; conditions: Sorghum halepense, 1200 h; soil application one day after seeding, 50 g ai/a, wettable powder, fresh weight on 50th day after spray; read-out: Herbicidal effects Johnsongrass
Procedure: as §2

[12] = test system: ALS (acetolactate syntase) from barnyardgrass seedlings; experiment: ALS (acetolactate syntase) inhibition test, barnyardgrass enzyme; format: biochemical; conditions: 10,000 ppm (0.5 μg/0.5 ml) of compound; 1 hour at 30° C.; absorbance at 525 nm
Procedure: as §3, §4, §5, §6

[13] = test system: johnsongrass emerging from rhizome; experiment: Application test on johnsongrass emerging from rhizome; format: in vivo; conditions: foliar application at stage of 4-5 leaves, application rate of active ingredient 20 (unit not given), emulsion, 50th day after spray
Procedure: as §2
Resin-made 1/1000-are pots were filled with the soil of an upland field. After they were fertilized, rhizome of johnsongrass were transplanted to the pots and 3 cm soil covering was applied. They were allowed to grow in a green house. When each johnsongrass grew to the stage of 4-5 leaves, an emulsion formulated from a predetermined amount of each test compound in a similar manner to the procedures described in Formulation Example 11 was diluted with water and then sprayed at a predetermined application rate by means of a pressure-operated sprayer. The application rate was controlled at 5 l per are. The effect of each compound against the johnsongrass emerging from its rhizome was observed on the 50th day after the spray of the herbicides. The results are shown in Table 5 in which the herbicidal effect against johnsongrass is shown in a similar manner to Test 2.

common lambsquarters [14] = experiment: Upland soil application test, common lambsquarters; format: in vivo; conditions: Chenopodium album, 1200 h; soil application one day after seeding, 50 g ai/a, wettable powder, fresh weight on 50th day after spray; read-out: Herbicidal effects Common lambquarters
Procedure: as §2

[15] = test system: Barnyardgrass (Echinochloa crusgalli); experiment: Upland foliar application test, barnyardgrass; format: in vivo; conditions: Echinochloa crus-galli, 960 h; foliar application at stage of 2-3 leaves, 50 g ai/a, emulsion, 40th day after spray; read-out: Herbicidal effects Barnyardgrass (Echinochloa crusgalli)
Procedure: as §1

[16] = test system: Crabgrass (Digitaria adscendens); experiment: Upland soil application test, large crabgrass; format: in vivo; conditions: 1200 h, soil application one day after seeding, 50 g ai/a, wettable powder, fresh weight on 50th day after spray, read-out: Herbicidal effects Crabgrass (Digitaria adscendens)
Procedure: as §2

[17] = test system: Amaranth (Amaranthus viridis); experiment: Upland soil application test, amaranth; format: in vivo; conditions: 1200 h, soil application one day after seeding, 50 g ai/a, wettable powder, fresh weight on 50th day after spray, read-out: Herbicidal effects Amaranth (Amaranthus viridis)
Procedure: as §2

common lambsquarters [18] = experiment: Upland foliar application test, common lambsquarters; format: in vivo; conditions: Chenopodium album, 960 h; foliar application at stage of 2-3 leaves, 50 g ai/a, emulsion, 40th day after spray; read-out: Herbicidal effects Common lambquarters
Procedure: as §1

Soybean (Glycine max) [19] = experiment: Upland soil application test, crop injury soybean; format: in vivo; conditions: soil application one day after seeding, 50 g ai/a, wettable powder, fresh weight on 50th day after spray
Procedure: as §2

Compound	pest or weed control at 5000 g/ha (Johnsongrass [1]) [%]	Crop injury Cotton (Gossypium indicum) [2] [%]	pest or weed control at 5000 g/ha [3] [%]	Crop injury Soybean (Glycine max) (Soybean (Glycine max) [4]) [%]	pest or weed control at 5000 g/ha [5] [%]	pest or weed control at 5000 g/ha [6] [%]	pest or weed control at 5000 g/ha [7] [%]	Crop injury Cotton (Gossypium indicum) [8] [%]	Enzymoreaction inhibition rate (%) Pea [9] [%]	pest or weed control at 5000 g/ha [10] [%]	pest or weed control at 5000 g/ha (Johnsongrass [11]) [%]	Enzymoreaction inhibition rate (%) Barnyardgrass [12] [%]	Herbicidal effect against johnsongrass emerging from rhizome [13] [%]	pest or weed control at 5000 g/ha (common lambsquarters [14]) [%]	pest or weed control at 5000 g/ha [15] [%]	pest or weed control at 5000 g/ha [16] [%]	pest or weed control at 5000 g/ha [17] [%]	pest or weed control at 5000 g/ha (common lambsquarters [18]) [%]	Crop injury Soybean (Glycine max) (Soybean (Glycine max) [19]) [%]
COC(=O)c1ccccc1Oc1nc(OC)cc(OC)n1 [Comp. Comp'd A, reference compound]	100	100	100	100	100	100	100	100	72	100	100	73	60	100	100	100	100	100	100
COc1cc(OC)nc(Oc2ccccc2C=O)n1 [Comp. Comp'd B, reference compound]	100	100	100	100	100	100	100	100	92	80	100	98	35	85	100	100	80	80	100
